This is an account of results in patent US20170166598A1, “HETEROARYL COMPOUNDS FOR KINASE INHIBITION” (ARIAD PHARMACEUTICALS, INC., priority 2014, published 2017).

Common to all, as to assay type: cell-based
The target of experiment [1] is T1, human EGFR exon 20 insertion ASV (V769_D770insASV) (Homo sapiens, UniProt P00533, INS769ASV).
T1 construct: expressed in transfected cells; host or cells: Ba/F3 (murine pro-B) cells transduced with lentivirus from pLVX-IRES puro
Nature of the experiment: Ba/F3-EGFR-Exon20-ASV cell anti-proliferative assay (CellTiter 96 MTS, 72 h). Conditions: Ba/F3-EGFR-Exon20-ASV cells. Summed up: (§1)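 Ba/F3 cells made IL-3-independent by lentiviral EGFR exon 20 NPG or ASV insertion were exposed 72 h at 37 °C to 4-fold dilutions of compound (top 10,000 nM). Viability read by MTS tetrazolium conversion, absorbance 490 nm after 2 h.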

Experiment [2] deals with T2, Her2 exon 20 YVMA insertion (A775_G776ins YVMA) (Homo sapiens, UniProt P04626, INS775YVMA).
T2 construct: expressed in transfected cells; host or cells: Ba/F3 (murine pro-B) cells transduced with lentivirus from pLVX-IRES puro
T2 sequence (P04626 with tags, fused parts or gaps INS775YVMA): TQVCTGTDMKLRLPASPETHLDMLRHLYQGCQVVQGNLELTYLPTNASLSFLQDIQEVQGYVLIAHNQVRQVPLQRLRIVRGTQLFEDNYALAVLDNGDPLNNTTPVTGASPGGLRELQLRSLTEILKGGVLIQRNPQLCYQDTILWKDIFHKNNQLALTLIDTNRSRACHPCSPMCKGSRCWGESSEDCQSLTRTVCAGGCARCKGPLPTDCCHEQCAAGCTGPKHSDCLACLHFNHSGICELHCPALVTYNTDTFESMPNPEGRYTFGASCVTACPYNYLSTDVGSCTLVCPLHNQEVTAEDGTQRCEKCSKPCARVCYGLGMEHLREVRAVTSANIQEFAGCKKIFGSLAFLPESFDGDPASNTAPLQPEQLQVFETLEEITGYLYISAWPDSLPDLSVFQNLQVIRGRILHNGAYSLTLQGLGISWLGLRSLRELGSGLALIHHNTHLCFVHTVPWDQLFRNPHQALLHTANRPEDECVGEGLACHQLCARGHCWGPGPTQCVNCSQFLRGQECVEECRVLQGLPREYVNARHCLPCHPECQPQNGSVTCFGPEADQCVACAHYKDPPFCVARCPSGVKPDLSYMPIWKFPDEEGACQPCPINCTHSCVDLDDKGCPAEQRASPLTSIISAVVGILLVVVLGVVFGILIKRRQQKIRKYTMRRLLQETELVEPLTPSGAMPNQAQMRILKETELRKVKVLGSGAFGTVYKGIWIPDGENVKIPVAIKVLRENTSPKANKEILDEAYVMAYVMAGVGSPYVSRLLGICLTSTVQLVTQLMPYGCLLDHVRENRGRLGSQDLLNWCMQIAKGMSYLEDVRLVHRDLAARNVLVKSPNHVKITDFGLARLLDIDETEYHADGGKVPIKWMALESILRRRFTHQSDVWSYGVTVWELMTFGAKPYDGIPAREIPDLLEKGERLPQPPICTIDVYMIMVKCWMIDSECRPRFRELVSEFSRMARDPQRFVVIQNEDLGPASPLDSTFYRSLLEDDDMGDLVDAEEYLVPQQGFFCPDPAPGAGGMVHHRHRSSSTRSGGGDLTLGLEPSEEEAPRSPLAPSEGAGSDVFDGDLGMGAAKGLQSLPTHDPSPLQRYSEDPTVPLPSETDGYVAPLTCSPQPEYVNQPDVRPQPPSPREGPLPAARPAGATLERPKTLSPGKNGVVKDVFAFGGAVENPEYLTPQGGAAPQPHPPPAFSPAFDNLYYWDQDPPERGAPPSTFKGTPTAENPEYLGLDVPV
Nature of the experiment: Ba/F3-Her2 Exon20 YVMA cell anti-proliferative assay (CellTiter 96 MTS, 72 h). As to conditions: Ba/F3-Her2 Exon20 YVMA cells. Summed up: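 IL-3-independent Ba/F3 cells transduced with the YVMA insertion were treated with compound in 4-fold dilutions from 10,000 nM top. After 72 h at 37° C, viable cells were quantified by MTS tetrazolium conversion, with absorbance read at 490 nm after 2 h.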

The target in experiment [3] is T3, human EGFR E746-A750 deletion and T790M Mutation (Homo sapiens, UniProt P00533, DEL746-750/T790M).
T3 construct: expressed in transfected cells; host or cells: Ba/F3 (murine pro-B) cells transduced with lentivirus from pLVX-IRES puro
T3 sequence (P00533 with tags, fused parts or gaps DEL746-750/T790M): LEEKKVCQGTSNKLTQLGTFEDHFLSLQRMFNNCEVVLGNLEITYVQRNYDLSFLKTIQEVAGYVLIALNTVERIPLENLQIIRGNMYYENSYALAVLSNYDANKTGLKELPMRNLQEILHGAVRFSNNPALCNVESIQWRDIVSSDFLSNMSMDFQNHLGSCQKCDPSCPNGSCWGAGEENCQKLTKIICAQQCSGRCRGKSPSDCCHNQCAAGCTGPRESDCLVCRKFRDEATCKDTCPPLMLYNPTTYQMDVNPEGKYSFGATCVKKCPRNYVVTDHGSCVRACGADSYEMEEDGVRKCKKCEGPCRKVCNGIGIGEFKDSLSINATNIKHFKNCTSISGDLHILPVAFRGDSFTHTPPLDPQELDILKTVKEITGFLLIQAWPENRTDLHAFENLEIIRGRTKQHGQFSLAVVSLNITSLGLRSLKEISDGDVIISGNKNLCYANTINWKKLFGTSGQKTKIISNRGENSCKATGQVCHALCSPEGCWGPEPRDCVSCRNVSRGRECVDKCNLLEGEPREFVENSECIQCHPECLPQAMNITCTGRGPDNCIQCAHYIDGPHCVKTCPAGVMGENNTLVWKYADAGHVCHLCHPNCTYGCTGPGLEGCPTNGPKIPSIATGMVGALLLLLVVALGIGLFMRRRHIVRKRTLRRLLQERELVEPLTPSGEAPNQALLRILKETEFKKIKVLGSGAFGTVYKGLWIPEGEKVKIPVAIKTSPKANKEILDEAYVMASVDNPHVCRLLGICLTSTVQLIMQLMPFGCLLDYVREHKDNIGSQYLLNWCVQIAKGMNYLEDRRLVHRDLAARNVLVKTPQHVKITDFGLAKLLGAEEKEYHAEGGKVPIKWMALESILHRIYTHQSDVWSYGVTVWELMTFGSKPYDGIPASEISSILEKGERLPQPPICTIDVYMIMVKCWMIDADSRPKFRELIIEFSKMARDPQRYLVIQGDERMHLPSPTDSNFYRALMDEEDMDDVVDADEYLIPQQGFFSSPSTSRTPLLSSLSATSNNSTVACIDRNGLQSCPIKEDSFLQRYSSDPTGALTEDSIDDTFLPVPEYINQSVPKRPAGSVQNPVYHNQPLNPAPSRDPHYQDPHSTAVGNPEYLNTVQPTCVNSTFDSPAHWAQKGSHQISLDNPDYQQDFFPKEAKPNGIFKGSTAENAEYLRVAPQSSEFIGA
Nature of the experiment: Ba/F3-EGFR-Del/T790M cell anti-proliferative assay (CellTiter 96 MTS, 72 h). Conditions: Ba/F3-EGFR-Del/T790M cells. Summed up: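 Ba/F3 cells made IL-3-independent by lentiviral human EGFR E746-A750 del/T790M, puromycin-selected. Cells treated 72 h at 37 °C with compound, 4-fold dilutions from 10,000 nM top concentration. Viability read by MTS tetrazolium-to-formazan conversion, absorbance at 490 nm after 2 h with reagent.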

Experiment [4] has as its target T4, human EGFR exon 20 insertion NPG (H773_V774insNPG) (Homo sapiens, UniProt P00533, INS772GNP).
T4 construct: expressed in transfected cells; host or cells: Ba/F3 (murine pro-B) cells transduced with lentivirus from pLVX-IRES puro
Nature of the experiment: Ba/F3-EGFR-Exon20-NPG cell anti-proliferative assay (CellTiter 96 MTS, 72 h). As to conditions: Ba/F3-EGFR-Exon20-NPG cells. Summed up: as §1

The target in experiment [5] is T5, human EGFR L858R and T790M double mutation (Homo sapiens, UniProt P00533, L858R/T790M).
T5 construct: expressed in transfected cells; host or cells: Ba/F3 (murine pro-B) cells transduced with lentivirus from pLVX-IRES puro
Nature of the experiment: Ba/F3-EGFR L858R/T790M cell anti-proliferative assay (CellTiter 96 MTS, 72 h). As to conditions: Ba/F3-EGFR L858R/T790M cells. On the procedure:
An expression vector, pLVX-IRES puro (Clontech) coding for human EGFR L858R and T790M double mutation, was transfected into HEK293 cells by the Trans-Lentiviral ORF Packaging System (Thermo Scientific), to produce virus encoding EGFR L858R and T790M double mutations. Ba/F3 (DSMZ) cells maintained in RPMI 1640 medium supplemented with 10% fetal bovine serum, 200 μM L-glutamine/l 200 μg/mL penicillin/200 μg/mL streptomycin (Life Technology) and 10 ng/mL IL-3 (R&D system), were infected by EGFR L858R and T790M double mutation virus and subsequently selected by puromycin (Life Technology) selection and IL-3 depletion. […] The anti-proliferative activity of compounds was determined as follows: BaF3-EGFR L858R/T790M cells seeded in 96 well plates (2500 cells/well) were treated with test compound (dissolved in DMSO) at a series of concentrations (4-fold dilution, top concentration: 10,000 nM). The plates were incubated for 72 h in a 37° C. incubator with 5% CO2, and the number of viable cells in each well were measured indirectly by CellTiter 96® Aqueous One Solution Cell Proliferation Assay (Promega; this assay is a colorimetric method for determining the number of viable cells through measurement of their metabolic activity by detection of enzymatic conversion of tetrazolium salts into blue formazan derivatives). Reagent (20 μL) was added into each well, and the plates were returned to the incubator for 2 h. The absorbance in each well was then measured at 490 nm using an Envision plate reader (Perkin Elmer).

T1 sequence (P00533 with tags, fused parts or gaps INS769ASV): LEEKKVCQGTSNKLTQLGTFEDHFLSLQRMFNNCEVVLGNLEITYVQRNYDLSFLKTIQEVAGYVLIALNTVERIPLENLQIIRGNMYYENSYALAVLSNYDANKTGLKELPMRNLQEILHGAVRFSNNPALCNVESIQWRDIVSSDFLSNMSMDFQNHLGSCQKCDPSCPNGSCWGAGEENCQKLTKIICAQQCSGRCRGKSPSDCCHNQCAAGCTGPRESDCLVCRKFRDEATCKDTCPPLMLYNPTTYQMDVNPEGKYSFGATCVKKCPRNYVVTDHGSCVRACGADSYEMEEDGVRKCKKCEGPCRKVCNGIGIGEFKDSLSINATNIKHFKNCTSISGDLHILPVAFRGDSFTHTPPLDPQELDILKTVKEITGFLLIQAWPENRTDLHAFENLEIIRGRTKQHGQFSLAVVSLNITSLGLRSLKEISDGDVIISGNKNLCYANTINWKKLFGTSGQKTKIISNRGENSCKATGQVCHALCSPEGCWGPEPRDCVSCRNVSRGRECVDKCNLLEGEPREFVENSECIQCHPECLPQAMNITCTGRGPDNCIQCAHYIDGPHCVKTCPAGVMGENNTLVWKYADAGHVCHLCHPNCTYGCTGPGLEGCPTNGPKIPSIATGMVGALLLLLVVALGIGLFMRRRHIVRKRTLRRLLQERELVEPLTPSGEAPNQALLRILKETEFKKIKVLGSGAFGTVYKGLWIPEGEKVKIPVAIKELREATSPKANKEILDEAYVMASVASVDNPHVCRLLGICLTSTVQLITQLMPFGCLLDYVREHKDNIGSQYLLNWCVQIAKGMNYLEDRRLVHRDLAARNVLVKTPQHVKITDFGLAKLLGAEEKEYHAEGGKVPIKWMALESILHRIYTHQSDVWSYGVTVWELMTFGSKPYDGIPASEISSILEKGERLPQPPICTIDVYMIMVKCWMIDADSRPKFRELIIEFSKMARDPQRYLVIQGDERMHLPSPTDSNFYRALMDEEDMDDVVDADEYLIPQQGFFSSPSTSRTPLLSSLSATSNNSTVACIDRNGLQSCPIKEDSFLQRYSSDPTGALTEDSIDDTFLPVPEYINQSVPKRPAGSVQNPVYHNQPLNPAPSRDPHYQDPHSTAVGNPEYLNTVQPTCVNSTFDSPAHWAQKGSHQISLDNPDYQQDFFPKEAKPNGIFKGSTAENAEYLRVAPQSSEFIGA
T4 sequence (P00533 with tags, fused parts or gaps INS772GNP): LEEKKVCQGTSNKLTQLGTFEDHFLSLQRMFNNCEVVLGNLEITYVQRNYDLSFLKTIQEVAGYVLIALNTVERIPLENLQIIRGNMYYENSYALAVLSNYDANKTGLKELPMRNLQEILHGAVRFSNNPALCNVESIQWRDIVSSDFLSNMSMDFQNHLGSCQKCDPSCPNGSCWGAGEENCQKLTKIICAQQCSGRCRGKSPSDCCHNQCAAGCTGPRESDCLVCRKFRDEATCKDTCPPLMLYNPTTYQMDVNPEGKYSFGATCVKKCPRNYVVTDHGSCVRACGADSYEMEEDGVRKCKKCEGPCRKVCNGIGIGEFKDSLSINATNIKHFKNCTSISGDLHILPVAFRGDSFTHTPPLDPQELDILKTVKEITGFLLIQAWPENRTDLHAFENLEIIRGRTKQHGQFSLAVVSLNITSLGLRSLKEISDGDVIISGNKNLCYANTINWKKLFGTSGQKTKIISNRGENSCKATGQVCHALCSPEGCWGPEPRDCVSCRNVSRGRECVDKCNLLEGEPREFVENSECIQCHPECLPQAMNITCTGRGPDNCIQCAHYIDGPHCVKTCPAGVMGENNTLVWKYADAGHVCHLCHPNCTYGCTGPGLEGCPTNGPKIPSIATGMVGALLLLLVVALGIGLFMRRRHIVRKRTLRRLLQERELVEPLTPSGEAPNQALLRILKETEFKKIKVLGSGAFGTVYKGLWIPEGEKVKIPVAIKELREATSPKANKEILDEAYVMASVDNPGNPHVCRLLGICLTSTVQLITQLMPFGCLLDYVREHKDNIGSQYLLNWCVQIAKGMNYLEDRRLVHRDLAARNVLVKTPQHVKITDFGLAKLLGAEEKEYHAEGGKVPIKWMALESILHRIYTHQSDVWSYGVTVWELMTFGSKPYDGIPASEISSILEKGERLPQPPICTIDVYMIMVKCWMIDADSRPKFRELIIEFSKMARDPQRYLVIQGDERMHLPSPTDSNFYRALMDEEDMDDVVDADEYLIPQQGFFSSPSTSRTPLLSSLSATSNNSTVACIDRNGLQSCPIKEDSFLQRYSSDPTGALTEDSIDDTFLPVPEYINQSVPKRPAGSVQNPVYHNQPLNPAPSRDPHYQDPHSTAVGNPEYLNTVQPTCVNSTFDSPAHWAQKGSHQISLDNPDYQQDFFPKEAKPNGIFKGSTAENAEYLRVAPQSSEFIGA

For `C=CC(=O)Nc1cc(Nc2ncc(C(=O)NCCO)c(-c3cn4c5c(cccc35)CCC4)n2)c(OC)cc1N(C)CCN(C)C` [Example 48], the IC50 (usually the concentration at which inhibition is half-maximal) in experiment [1] was 500 to 1000 nM; in experiment [2], more than 1000 nM; in experiment [4], less than 100 nM. For the same molecule, the “EGFR exon 19 deletion and exon 20 T790M mutation IC50” value in experiment [3] is on record as “B (IC50 value for the indicated mutant between about 100 to about 500 nM)”. Further, the “EGFR exon 21 L858R and exon 20 T790M mutation IC50” value in experiment [5] is reported as “C (IC50 value for the indicated mutant between greater than about 500 to about 1 μM)”.
Take `C=CC(=O)Nc1cc(Nc2nccc(-c3cn4c5c(cccc35)CCC4)n2)c(OC)cc1N(C)CCN(C)C` [Example 10, N-(5-((4-(5,6-dihydro-4H-pyrrolo[3,2,1-ij]quinolin-1-yl)pyrimidin-2-yl)amino)-2-((2-(dimethylamino)ethyl)(methyl)amino)-4-methoxyphenyl)acrylamide]: the IC50 in experiment [1] is 100 to 500 nM; in experiment [2], 100 to 500 nM; in experiment [4], less than 100 nM. In experiment [3], the “EGFR exon 19 deletion and exon 20 T790M mutation IC50” value is recorded as “A (IC50 value for the indicated mutant below about 100 nM)”. The “EGFR exon 21 L858R and exon 20 T790M mutation IC50” value in experiment [5] was “A (IC50 value for the indicated mutant below about 100 nM)”.
On to `C=CC(=O)Nc1cc(Nc2ncc(Cl)c(-c3cn4c5c(cccc35)CCC4)n2)c(OC)cc1N(C)CCN(C)C` [Example 11, N-(5-((5-chloro-4-(5,6-dihydro-4H-pyrrolo[3,2,1-ij]quinolin-1-yl)pyrimidin-2-yl)amino)-2-((2-(dimethylamino)ethyl)(methyl)amino)-4-methoxyphenyl)acrylamide], for which the results for the IC50 in experiment [1], in experiment [2] and in experiment [4] were less than 100 nM, 100 to 500 nM and less than 100 nM, respectively. Also, the “EGFR exon 19 deletion and exon 20 T790M mutation IC50” value in experiment [3] was “A (IC50 value for the indicated mutant below about 100 nM)”. In addition, in experiment [5], the “EGFR exon 21 L858R and exon 20 T790M mutation IC50” value is recorded as “A (IC50 value for the indicated mutant below about 100 nM)”.
`C=CC(=O)Nc1cc(Nc2ncc(Cl)c(-c3cn4c5c(cccc35)OCC4)n2)c(OC)cc1O[C@H](COCC)CN(C)C` [Example 81, (S)-N-(5-((5-chloro-4-(2,3-dihydro-[1,4]oxazino[2,3,4-hi]indol-6-yl)pyrimidin-2-yl)amino)-2-((1-(dimethylamino)-3-ethoxypropan-2-yl)oxy)-4-methoxyphenyl)acrylamide]: the IC50 was 100 to 500 nM in experiment [2] and less than 100 nM in experiment [4]. Also, the “EGFR exon 19 deletion and exon 20 T790M mutation IC50” value in experiment [3] is reported as “A (IC50 value for the indicated mutant below about 100 nM)”. Further, in experiment [5], the “EGFR exon 21 L858R and exon 20 T790M mutation IC50” value is “A (IC50 value for the indicated mutant below about 100 nM)”.
Regarding `C=CC(=O)Nc1cc(Nc2ncc(Cl)c(-c3cn4c5c(cccc35)CCC4)n2)c(OC)cc1O[C@H](COCC)CN(C)C` [Example 23, (S)-N-(5-((5-chloro-4-(5,6-dihydro-4H-pyrrolo[3,2,1-ij]quinolin-1-yl)pyrimidin-2-yl)amino)-2-((1-(dimethylamino)-3-ethoxypropan-2-yl)oxy)-4-methoxyphenyl)acrylamide], the IC50 in experiment [2] and in experiment [4] was 100 to 500 nM in each case. For the same molecule, in experiment [3], the “EGFR exon 19 deletion and exon 20 T790M mutation IC50” value was “A (IC50 value for the indicated mutant below about 100 nM)”. Moreover, the “EGFR exon 21 L858R and exon 20 T790M mutation IC50” value in experiment [5] was “A (IC50 value for the indicated mutant below about 100 nM)”.
Take `C=CC(=O)Nc1cc(Nc2ncc(Cl)c(-c3cn4c5c(cccc35)CCC4)n2)c(Cl)cc1N(C)CCN(C)C` [Example 12, N-(4-chloro-5-((5-chloro-4-(5,6-dihydro-4H-pyrrolo[3,2,1-ij]quinolin-1-yl)pyrimidin-2-yl)amino)-2-((2-(dimethylamino)ethyl)(methyl)amino)phenyl)acrylamide]: the IC50 in experiment [2] is 100 to 500 nM; in experiment [4] it was less than 100 nM. Also, the “EGFR exon 19 deletion and exon 20 T790M mutation IC50” value in experiment [3] is recorded as “A (IC50 value for the indicated mutant below about 100 nM)”. For the same molecule, in experiment [5], the “EGFR exon 21 L858R and exon 20 T790M mutation IC50” value is recorded as “A (IC50 value for the indicated mutant below about 100 nM)”.
In the case of `C=CC(=O)Nc1cc(Nc2ncc(Cl)c(-c3cn4c5c(cccc35)OCC4)n2)c(OC)cc1O[C@@H](COCC)CN(C)C` [Example 80, (R)-N-(5-((5-chloro-4-(2,3-dihydro-[1,4]oxazino[2,3,4-hi]indol-6-yl)pyrimidin-2-yl)amino)-2-((1-(dimethylamino)-3-ethoxypropan-2-yl)oxy)-4-methoxyphenyl)acrylamide], the results for the IC50 in experiment [2] and in experiment [4] were 100 to 500 nM and less than 100 nM, respectively. In addition, the “EGFR exon 19 deletion and exon 20 T790M mutation IC50” value in experiment [3] is “A (IC50 value for the indicated mutant below about 100 nM)”. In addition, in experiment [5], the “EGFR exon 21 L858R and exon 20 T790M mutation IC50” value is on record as “A (IC50 value for the indicated mutant below about 100 nM)”.
`C=CC(=O)Nc1cc(Nc2ncc(/C=C\C#N)c(-c3cn4c5c(cccc35)CCC4)n2)c(OC)cc1N(C)CCN(C)C` [Example 43, (Z)-N-(5-((5-(2-cyanovinyl)-4-(5,6-dihydro-4H-pyrrolo[3,2,1-ij]quinolin-1-yl)pyrimidin-2-yl)amino)-2-((2-(dimethylamino)ethyl)(methyl)amino)-4-methoxyphenyl)acrylamide]: the IC50 in experiment [1], in experiment [2] and in experiment [4] was less than 100 nM in each case. Also, the “EGFR exon 19 deletion and exon 20 T790M mutation IC50” value in experiment [3] is “A (IC50 value for the indicated mutant below about 100 nM)”.
`C=CC(=O)Nc1cc(Nc2ncc(CCC(C)O)c(-c3cn4c5c(cccc35)CCC4)n2)c(OC)cc1N(C)CCN(C)C` (stereo not drawn) [Example 32, N-(5-((4-(5,6-dihydro-4H-pyrrolo[3,2,1-ij]quinolin-1-yl)-5-(3-hydroxybutyl)pyrimidin-2-yl)amino)-2-((2-(dimethylamino)ethyl)(methyl)amino)-4-methoxyphenyl)acrylamide]: the IC50 in experiment [1] was less than 100 nM; in experiment [2] it was 100 to 500 nM; in experiment [4], less than 100 nM. The “EGFR exon 19 deletion and exon 20 T790M mutation IC50” value in experiment [3] is “A (IC50 value for the indicated mutant below about 100 nM)”.
Take `C=CC(=O)Nc1cc(Nc2ncc(-c3ncnn3C)c(-c3cn4c5c(cccc35)CCC4)n2)c(OC)cc1N(C)CCN(C)C` [Example 111]: the values for the IC50 in experiment [1], in experiment [2] and in experiment [4] were less than 100 nM, 100 to 500 nM and less than 100 nM, respectively. For the same molecule, in experiment [3], the “EGFR exon 19 deletion and exon 20 T790M mutation IC50” value was “A (IC50 value for the indicated mutant below about 100 nM)”.
Take `C=CC(=O)Nc1cc(Nc2nccc(-c3c(N4CCCC4=O)n4c5c(cccc35)CCC4)n2)c(OC)cc1N(C)CCN(C)C` [Example 72, N-(2-((2-(dimethylamino)ethyl)(methyl)amino)-4-methoxy-5-((4-(2-(2-oxopyrrolidin-1-yl)-5,6-dihydro-4H-pyrrolo[3,2,1-ij]quinolin-1-yl)pyrimidin-2-yl)amino)phenyl)acrylamide]: the IC50 in experiment [1] was less than 100 nM; in experiment [2], 100 to 500 nM; in experiment [4] it was less than 100 nM. The “EGFR exon 19 deletion and exon 20 T790M mutation IC50” value in experiment [3] is listed as “A (IC50 value for the indicated mutant below about 100 nM)”.
Turning to `C=CC(=O)Nc1cc(Nc2nccc(-c3c(-c4ncccn4)n4c5c(cccc35)CCC4)n2)c(OC)cc1N(C)CCN(C)C` [Example 109], the figures for the IC50 in experiment [1], in experiment [2] and in experiment [4] were more than 1000 nM, more than 1000 nM and 100 to 500 nM, respectively. For the same molecule, the “EGFR exon 19 deletion and exon 20 T790M mutation IC50” value in experiment [3] is recorded as “B (IC50 value for the indicated mutant between about 100 to about 500 nM)”.
